Patent publication US20180000085A1, “USE OF PICOLINAMIDE COMPOUNDS WITH FUNGICIDAL ACTIVITY” (DOW AGROSCIENCES LLC, priority 2014, published 2018)

Key:
Zymoseptoria tritici = assay: Leaf blotch of wheat (SEPTTR) disease control on wheat seedlings; format: in vivo; set-up: key to SEPTTR 1DP, HV activity at 100 ppm (% control rating) / SEPTTR 3DC, HV activity at 100 ppm (% control rating) / SEPTTR disease control, 1DP / SEPTTR disease control, 3DC / SEPTTR 1DP disease control rating, HV activity / SEPTTR 3DC disease control rating, HV activity / SEPTTR 3DC, LV activity at 125.1 g/H (% Control rating) / SEPTTR 1DP, LV activity at 125.1 g/H (% Control rating) / SEPTTR 1DP disease control rating, LV activity at 125.1 g/H / SEPTTR 3DC disease control rating, LV activity at 125.1 g/H / SEPTTR 3DC disease control rating, HV activity at 100 ppm / SEPTTR 1DP disease control rating, HV activity at 100 ppm / HV activity at 100 ppm SEPTTR 3DC (disease control rating) / HV activity at 100 ppm SEPTTR 1DP (disease control rating) / LV activity at 125.1 g/H SEPTTR 1DP (disease control rating) / LV activity at 125.1 g/H SEPTTR 3DC (disease control rating): A: > 80; B: ≤ 80; C: Not Tested; D: No Activity Observed in the Reported Assay; details: low volume application, 125.1 g/H; for SEPTTR 1DP, LV activity at 125.1 g/H (% Control rating): 1 Day Protectant; for SEPTTR 3DC, LV activity at 125.1 g/H (% Control rating): 3 Day Curative
Puccinia triticina = assay: Wheat brown rust (PUCCRT) disease control on wheat seedlings; format: in vivo; set-up: key to PUCCRT 3DC, HV activity at 100 ppm (% control rating) / PUCCRT disease control, 3DC / PUCCRT 1DP disease control rating, HV activity / PUCCRT 3DC disease control rating, HV activity / PUCCRT 3DC, LV activity at 125.1 g/H (% Control rating) / PUCCRT 1DP, LV activity at 125.1 g/H (% Control rating) / PUCCRT 3DC disease control rating, LV activity at 125.1 g/H / PUCCRT 1DP disease control rating, LV activity at 125.1 g/H / PUCCRT 3DC disease control rating, HV activity at 100 ppm / PUCCRT 1DP disease control rating, HV activity at 100 ppm / HV activity at 100 ppm PUCCRT 3DC (disease control rating) / LV activity at 125.1 g/H PUCCRT 1DP (disease control rating) / LV activity at 125.1 g/H PUCCRT 3DC (disease control rating): A: > 80; B: ≤ 80; C: Not Tested; D: No Activity Observed in the Reported Assay; details: low volume application, 125.1 g/H; for PUCCRT 1DP, LV activity at 125.1 g/H (% Control rating): 1 Day Protectant; for PUCCRT 3DC, LV activity at 125.1 g/H (% Control rating): 3 Day Curative

Row | Compound | SEPTTR 1DP, LV activity at 125.1 g/H (% Control rating) (Zymoseptoria tritici) | SEPTTR 3DC, LV activity at 125.1 g/H (% Control rating) (Zymoseptoria tritici) | PUCCRT 1DP, LV activity at 125.1 g/H (% Control rating) (Puccinia triticina) | PUCCRT 3DC, LV activity at 125.1 g/H (% Control rating) (Puccinia triticina)
1 | COc1ccnc(C(=O)N[C@@H](C)C(=O)O[C@@H](C)[C@H](Oc2ccc(Cl)cc2Cl)C(C)C)c1OCOC(C)=O [Cmpd 562] | D | A (> 80) | A (> 80) | A (> 80)
2 | COc1ccnc(C(=O)N[C@H](C(=O)O[C@@H](C)[C@H](Oc2cccc(Cl)c2)C(C)C)C(C)C)c1OCOC(C)=O [Cmpd 564] | A (> 80) | A (> 80) | A (> 80) | A (> 80)
3 | COc1ccnc(C(=O)N[C@@H](CC(C)C)C(=O)O[C@@H](C)[C@H](Oc2ccc(Cl)cc2Cl)C(C)C)c1OCOC(C)=O [Cmpd 565] | D | B (≤ 80) | B (≤ 80) | B (≤ 80)
4 | COc1ccnc(C(=O)N[C@@H](C)C(=O)O[C@@H](C)[C@H](Oc2ccc(Cl)cc2Cl)C(C)C)c1OC(C)=O [Cmpd 567] | D | A (> 80) | A (> 80) | A (> 80)
5 | COc1ccnc(C(=O)N[C@@H](CC(C)C)C(=O)O[C@@H](C)[C@H](Oc2ccc(Cl)cc2Cl)C(C)C)c1OC(C)=O [Cmpd 570] | D | D | D | D
6 | COc1ccnc(C(=O)N[C@@H](C)C(=O)O[C@@H](C)[C@H](Oc2cccc(Cl)c2)C(C)C)c1OCOC(=O)C(C)C [Cmpd 571] | B (≤ 80) | A (> 80) | A (> 80) | A (> 80)
7 | COc1ccnc(C(=O)N[C@@H](C)C(=O)O[C@@H](C)[C@H](Oc2ccc(Cl)cc2Cl)C(C)C)c1OCOC(=O)C(C)C [Cmpd 572] | B (≤ 80) | B (≤ 80) | A (> 80) | A (> 80)
8 | COc1ccnc(C(=O)N[C@@H](C)C(=O)O[C@@H](C)[C@H](Oc2ccc(Cl)cc2)C(C)C)c1OCOC(=O)C(C)C [Cmpd 573] | A (> 80) | A (> 80) | A (> 80) | A (> 80)
9 | COc1ccnc(C(=O)N[C@@H](Cc2ccccc2)C(=O)O[C@@H](C)[C@H](Oc2cccc(F)c2)c2ccccc2)c1OCOC(C)=O [Cmpd 576] | B (≤ 80) | D | A (> 80) | B (≤ 80)
10 | COc1ccnc(C(=O)N[C@@H](Cc2ccccc2)C(=O)O[C@@H](C)[C@H](Oc2cccc(F)c2)c2ccccc2)c1OC(C)=O [Cmpd 577] | B (≤ 80) | D | A (> 80) | B (≤ 80)
11 | COc1ccnc(C(=O)N[C@@H](C)C(=O)O[C@@H](C)[C@H](Oc2ccc(C(F)(F)F)cc2)c2ccccc2)c1OC(C)=O [Cmpd 583] | A (> 80) | A (> 80) | A (> 80) | B (≤ 80)
12 | COc1ccnc(C(=O)N[C@H](C(=O)O[C@@H](C)[C@H](Oc2ccc(C(F)(F)F)cc2)c2ccccc2)C(C)C)c1OCOC(C)=O [Cmpd 584] | A (> 80) | D | A (> 80) | B (≤ 80)
13 | COc1ccnc(C(=O)N[C@H](C(=O)O[C@@H](C)[C@H](Oc2ccc(C(F)(F)F)cc2)c2ccccc2)C(C)C)c1OC(C)=O [Cmpd 585] | A (> 80) | D | A (> 80) | B (≤ 80)
